Assay [1] deals with T1, RyR1 (Sus scrofa, UniProt P16960). The experiment in a line: F-FKBP binding to RyR1 by co-sedimentation with skeletal SR membranes. The note with it: RyR1, 10 μM Hit, 30 nM Ca2+, 5 mM GSSG or GSH. On the set-up: using co-sedimentation with pig skeletal and cardiac SR membranes; from tissue; host or cells: pig skeletal muscle (heavy SR membranes); species or system pig. The method, then: (§1) The Hit-induced effect on FRET between D-FKBP and A-CaM most likely results from one or the combination of factors, including a shift in CaM and/or FKBP12.6 binding, and/or structure of the RyR complex that shifts the D-A distance. Under the same assay conditions as in the primary screen, we assessed the effect of 10 μM Hit on fluorescent FKBP12.6 (F-FKBP) binding to RyRs, using co-sedimentation with pig skeletal and cardiac SR membranes.
(§2) Supplementary Fig. 3 Effect of HTS Hits on F-FKBP binding to a) RyR1 in skeletal HSR membranes, and b) RyR2
(§3) in cardiac CSR membranes at 30 nM Ca2+ in the presence of 5 mM GSSG or GSH. Results are represented as individual
(§4) data points and means ± SEM, n = 4-5. *P < 0.05 by 2-sided Student’s unpaired t-test. […]

In assay [2] the target is T2, RyR2 (Sus scrofa, UniProt A0A5G2R1W3). Nature of the assay: F-FKBP binding to RyR2 by co-sedimentation with cardiac SR membranes. On the set-up: using co-sedimentation with pig skeletal and cardiac SR membranes; from tissue; host or cells: pig cardiac muscle (crude SR membranes); species or system pig. The note with it: RyR2, 10 μM Hit, 30 nM Ca2+, 5 mM GSSG or GSH. The method, then:
as §1, §2, §3, §4

Assay [3] deals with T1, RyR1. Nature of the assay: FLT-FRET between D-FKBP and A-CaM bound to RyR1 in skeletal SR membranes (HTS and dose-response). The class given is binding, porcine. On the set-up: RyR1 in skeletal SR membranes, and RyR2 in cardiac SR membranes; from tissue; host or cells: porcine longissimus dorsi muscle (heavy SR vesicles). As to conditions: for Hit in primary FLT-FRET HTS of LOPAC (FRET altered by > 4 SD vs DMSO): 10 μM compound, 2-hour incubation, 0.3 μM A-CaM, 1536-well; for IC50: RyR1, skeletal SR. The method, then: To confer compatibility with current HTS standards in industrial drug discovery facilities, we miniaturized our screening format from the previously established 384-well plates, requiring 50 μL sample per well[19], to 1536-well plates, requiring 5 μL sample per well. The complete 1280-compound library of pharmacologically active compounds (LOPAC) was applied as 5 nL/well in 40 columns of one 1536-well black-wall/black-bottom plate, with the remaining 8 columns loaded with 5 nL/well of DMSO, as no-drug controls. For each run of the screen, three plates were loaded with either (1) unlabeled HSR, or (2) HSR pre-incubated with donor-FKBP (D-FKBP; donor-only sample), or (3) donor-only sample that was additionally incubated with 0.3 μM acceptor-CaM (A-CaM) for 60 min prior to loading on the plate (donor-acceptor sample). This sub-saturating concentration of A-CaM was used to provide a readout that is sensitive to library compounds that may increase or decrease CaM binding affinity to RyR. To promote a homogenous population of RyR1 resembling that associated with myopathies, final assay conditions also included 30 nM Ca^2+ to represent resting (muscle relaxing) Ca^2+, and 5 mM oxidized glutathione (GSSG), which exaggerates the conditions associated with oxidative stress.
We acquired both FLT waveforms and fluorescence spectra, as previously described[19],[33],[34]. As previously observed, Hit effects were greatest following a 2-hour incubation with the library compounds (Supplementary Fig. 1a). As a result, all FRET results shown in Figs. 1 and 2, and Supplementary Fig. 2 are reported from the 2-hour incubation.
(§5) Necessary counter-screens to our pathological RyR1 conditions include evaluating compound effects in healthy conditions and on the cardiac isoform, RyR2. Using the same FRET assay as in HTS, we tested the dose response of key Hits from this screen and the previously HTS-identified RyR1 inhibitor, chloroxine, on healthy (5 mM GSH) and pathological (5 mM GSSG) conditions for both RyR1 in skeletal SR membranes, and RyR2 in cardiac SR membranes.
(§6) Skeletal HSR and cardiac CSR (0.4 mg/ml) membranes were independently pre-incubated with 60 nM D-FKBP, for 90 min, at 37 °C, in a solution containing 150 mM KCl, 5 mM GSH, 0.1 mg/mL BSA, 1 µg/mL Aprotinin/Leupeptin, 1 mM DTT and 20 mM PIPES (pH 7.0). To remove unbound D-FKBP, the SR membranes were spun down at 110,000 × g for 20 min, and then resuspended to 1 mg/mL (skeletal HSR) and 2 mg/mL (cardiac CSR) in binding buffer consisting of 150 mM KCl, 5 mM GSSG, 0.1 mg/mL BSA, 1μg/mL Aprotinin/Leupeptin and 20 mM PIPES, pH 7.0. These samples were then incubated with indicated [A-CaM] for 30 min at 22 °C in binding buffer containing 0.065 mM CaCl2 to give 30 nM free Ca^2+ in the presence of 1 mM EGTA (calculated by MaxChelator). This labeled SR sample was applied to the assay plates in 5 μL aliquots using a Multidrop™ Combi reagent dispenser (Thermo Scientific) with a standard-tube. An additional set of the assay plates were loaded with skeletal HSR or cardiac CSR labeled with only D-FKBP (no added A-CaM).
(§7) FLT measurements were conducted in a top-read FLT-PR designed and built by Fluorescence Innovations, Inc[33]. AF488 donor fluorescence was excited with a 473-nm microchip laser from Concepts Research Corporation (Belgium, WI), and emission was acquired with 490-nm long-pass and 517/20-nm band-pass filters (Semrock, Rochester, NY).
FLT waveforms for each well were fit based on a one-exponential decay function using least-squares minimization global-analysis software (Fluorescence Innovations, Inc.), as previously described[19],[33]. FRET efficiency (E) was determined as the fractional decrease of donor FLT (τD), due to the presence of acceptor fluorophore (τDA), using the following equation:1 E=1−τDA/τD, […]

For assay [4], the target named is T2, RyR2. The experiment in a line: FLT-FRET between D-FKBP and A-CaM bound to RyR2 in cardiac SR membranes (dose-response). In kind it is binding, porcine. More on the design: RyR1 in skeletal SR membranes, and RyR2 in cardiac SR membranes; from tissue; host or cells: porcine cardiac left ventricle (crude SR vesicles). As to conditions: 30 nM Ca2+; for IC50: RyR2, cardiac SR. Here is the method: as §5, §6, §7
FLT waveforms for each well were fit based on a one-exponential decay function using least-squares minimization global-analysis software (Fluorescence Innovations, Inc.), as previously described[19],[33]. FRET efficiency (E) was determined as the fractional decrease of donor FLT (τD), due to the presence of acceptor fluorophore (τDA), using the following equation:1 E=1−τDA/τD,

Assay [5] deals with ryanodine receptor, cardiac isoform (RyR2), in porcine cardiac SR membranes (pig (endogenous in porcine cardiac left ventricle)). Nature of the assay: co-sedimentation; fluorescent FKBP12.6 co-sedimented with pig skeletal and cardiac SR membranes, same conditions as the primary screen; with 10 μM temsirolimus or tacrolimus.
Assay [6] has as its target ryanodine receptor, skeletal muscle isoform (RyR1), in porcine skeletal heavy SR membranes (pig (endogenous in porcine longissimus dorsi muscle)) (UniProt P16960). Described as above.
Assay [7] deals with ryanodine receptor, cardiac isoform (RyR2), in porcine cardiac SR membranes (pig (endogenous in porcine cardiac left ventricle)). The experiment in a line: FRET or BRET; same FLT-FRET read-out with temsirolimus (dose response); skeletal and cardiac SR membranes, 30 nM Ca2+, 5 mM GSSG or GSH.
Assay [8] addresses ryanodine receptor, skeletal muscle isoform (RyR1), in porcine skeletal heavy SR membranes (pig (endogenous in porcine longissimus dorsi muscle)) (UniProt P16960). The description is as above.

Bounds are passed on as bounds.

T2 sequence (A0A5G2R1W3 20-4900): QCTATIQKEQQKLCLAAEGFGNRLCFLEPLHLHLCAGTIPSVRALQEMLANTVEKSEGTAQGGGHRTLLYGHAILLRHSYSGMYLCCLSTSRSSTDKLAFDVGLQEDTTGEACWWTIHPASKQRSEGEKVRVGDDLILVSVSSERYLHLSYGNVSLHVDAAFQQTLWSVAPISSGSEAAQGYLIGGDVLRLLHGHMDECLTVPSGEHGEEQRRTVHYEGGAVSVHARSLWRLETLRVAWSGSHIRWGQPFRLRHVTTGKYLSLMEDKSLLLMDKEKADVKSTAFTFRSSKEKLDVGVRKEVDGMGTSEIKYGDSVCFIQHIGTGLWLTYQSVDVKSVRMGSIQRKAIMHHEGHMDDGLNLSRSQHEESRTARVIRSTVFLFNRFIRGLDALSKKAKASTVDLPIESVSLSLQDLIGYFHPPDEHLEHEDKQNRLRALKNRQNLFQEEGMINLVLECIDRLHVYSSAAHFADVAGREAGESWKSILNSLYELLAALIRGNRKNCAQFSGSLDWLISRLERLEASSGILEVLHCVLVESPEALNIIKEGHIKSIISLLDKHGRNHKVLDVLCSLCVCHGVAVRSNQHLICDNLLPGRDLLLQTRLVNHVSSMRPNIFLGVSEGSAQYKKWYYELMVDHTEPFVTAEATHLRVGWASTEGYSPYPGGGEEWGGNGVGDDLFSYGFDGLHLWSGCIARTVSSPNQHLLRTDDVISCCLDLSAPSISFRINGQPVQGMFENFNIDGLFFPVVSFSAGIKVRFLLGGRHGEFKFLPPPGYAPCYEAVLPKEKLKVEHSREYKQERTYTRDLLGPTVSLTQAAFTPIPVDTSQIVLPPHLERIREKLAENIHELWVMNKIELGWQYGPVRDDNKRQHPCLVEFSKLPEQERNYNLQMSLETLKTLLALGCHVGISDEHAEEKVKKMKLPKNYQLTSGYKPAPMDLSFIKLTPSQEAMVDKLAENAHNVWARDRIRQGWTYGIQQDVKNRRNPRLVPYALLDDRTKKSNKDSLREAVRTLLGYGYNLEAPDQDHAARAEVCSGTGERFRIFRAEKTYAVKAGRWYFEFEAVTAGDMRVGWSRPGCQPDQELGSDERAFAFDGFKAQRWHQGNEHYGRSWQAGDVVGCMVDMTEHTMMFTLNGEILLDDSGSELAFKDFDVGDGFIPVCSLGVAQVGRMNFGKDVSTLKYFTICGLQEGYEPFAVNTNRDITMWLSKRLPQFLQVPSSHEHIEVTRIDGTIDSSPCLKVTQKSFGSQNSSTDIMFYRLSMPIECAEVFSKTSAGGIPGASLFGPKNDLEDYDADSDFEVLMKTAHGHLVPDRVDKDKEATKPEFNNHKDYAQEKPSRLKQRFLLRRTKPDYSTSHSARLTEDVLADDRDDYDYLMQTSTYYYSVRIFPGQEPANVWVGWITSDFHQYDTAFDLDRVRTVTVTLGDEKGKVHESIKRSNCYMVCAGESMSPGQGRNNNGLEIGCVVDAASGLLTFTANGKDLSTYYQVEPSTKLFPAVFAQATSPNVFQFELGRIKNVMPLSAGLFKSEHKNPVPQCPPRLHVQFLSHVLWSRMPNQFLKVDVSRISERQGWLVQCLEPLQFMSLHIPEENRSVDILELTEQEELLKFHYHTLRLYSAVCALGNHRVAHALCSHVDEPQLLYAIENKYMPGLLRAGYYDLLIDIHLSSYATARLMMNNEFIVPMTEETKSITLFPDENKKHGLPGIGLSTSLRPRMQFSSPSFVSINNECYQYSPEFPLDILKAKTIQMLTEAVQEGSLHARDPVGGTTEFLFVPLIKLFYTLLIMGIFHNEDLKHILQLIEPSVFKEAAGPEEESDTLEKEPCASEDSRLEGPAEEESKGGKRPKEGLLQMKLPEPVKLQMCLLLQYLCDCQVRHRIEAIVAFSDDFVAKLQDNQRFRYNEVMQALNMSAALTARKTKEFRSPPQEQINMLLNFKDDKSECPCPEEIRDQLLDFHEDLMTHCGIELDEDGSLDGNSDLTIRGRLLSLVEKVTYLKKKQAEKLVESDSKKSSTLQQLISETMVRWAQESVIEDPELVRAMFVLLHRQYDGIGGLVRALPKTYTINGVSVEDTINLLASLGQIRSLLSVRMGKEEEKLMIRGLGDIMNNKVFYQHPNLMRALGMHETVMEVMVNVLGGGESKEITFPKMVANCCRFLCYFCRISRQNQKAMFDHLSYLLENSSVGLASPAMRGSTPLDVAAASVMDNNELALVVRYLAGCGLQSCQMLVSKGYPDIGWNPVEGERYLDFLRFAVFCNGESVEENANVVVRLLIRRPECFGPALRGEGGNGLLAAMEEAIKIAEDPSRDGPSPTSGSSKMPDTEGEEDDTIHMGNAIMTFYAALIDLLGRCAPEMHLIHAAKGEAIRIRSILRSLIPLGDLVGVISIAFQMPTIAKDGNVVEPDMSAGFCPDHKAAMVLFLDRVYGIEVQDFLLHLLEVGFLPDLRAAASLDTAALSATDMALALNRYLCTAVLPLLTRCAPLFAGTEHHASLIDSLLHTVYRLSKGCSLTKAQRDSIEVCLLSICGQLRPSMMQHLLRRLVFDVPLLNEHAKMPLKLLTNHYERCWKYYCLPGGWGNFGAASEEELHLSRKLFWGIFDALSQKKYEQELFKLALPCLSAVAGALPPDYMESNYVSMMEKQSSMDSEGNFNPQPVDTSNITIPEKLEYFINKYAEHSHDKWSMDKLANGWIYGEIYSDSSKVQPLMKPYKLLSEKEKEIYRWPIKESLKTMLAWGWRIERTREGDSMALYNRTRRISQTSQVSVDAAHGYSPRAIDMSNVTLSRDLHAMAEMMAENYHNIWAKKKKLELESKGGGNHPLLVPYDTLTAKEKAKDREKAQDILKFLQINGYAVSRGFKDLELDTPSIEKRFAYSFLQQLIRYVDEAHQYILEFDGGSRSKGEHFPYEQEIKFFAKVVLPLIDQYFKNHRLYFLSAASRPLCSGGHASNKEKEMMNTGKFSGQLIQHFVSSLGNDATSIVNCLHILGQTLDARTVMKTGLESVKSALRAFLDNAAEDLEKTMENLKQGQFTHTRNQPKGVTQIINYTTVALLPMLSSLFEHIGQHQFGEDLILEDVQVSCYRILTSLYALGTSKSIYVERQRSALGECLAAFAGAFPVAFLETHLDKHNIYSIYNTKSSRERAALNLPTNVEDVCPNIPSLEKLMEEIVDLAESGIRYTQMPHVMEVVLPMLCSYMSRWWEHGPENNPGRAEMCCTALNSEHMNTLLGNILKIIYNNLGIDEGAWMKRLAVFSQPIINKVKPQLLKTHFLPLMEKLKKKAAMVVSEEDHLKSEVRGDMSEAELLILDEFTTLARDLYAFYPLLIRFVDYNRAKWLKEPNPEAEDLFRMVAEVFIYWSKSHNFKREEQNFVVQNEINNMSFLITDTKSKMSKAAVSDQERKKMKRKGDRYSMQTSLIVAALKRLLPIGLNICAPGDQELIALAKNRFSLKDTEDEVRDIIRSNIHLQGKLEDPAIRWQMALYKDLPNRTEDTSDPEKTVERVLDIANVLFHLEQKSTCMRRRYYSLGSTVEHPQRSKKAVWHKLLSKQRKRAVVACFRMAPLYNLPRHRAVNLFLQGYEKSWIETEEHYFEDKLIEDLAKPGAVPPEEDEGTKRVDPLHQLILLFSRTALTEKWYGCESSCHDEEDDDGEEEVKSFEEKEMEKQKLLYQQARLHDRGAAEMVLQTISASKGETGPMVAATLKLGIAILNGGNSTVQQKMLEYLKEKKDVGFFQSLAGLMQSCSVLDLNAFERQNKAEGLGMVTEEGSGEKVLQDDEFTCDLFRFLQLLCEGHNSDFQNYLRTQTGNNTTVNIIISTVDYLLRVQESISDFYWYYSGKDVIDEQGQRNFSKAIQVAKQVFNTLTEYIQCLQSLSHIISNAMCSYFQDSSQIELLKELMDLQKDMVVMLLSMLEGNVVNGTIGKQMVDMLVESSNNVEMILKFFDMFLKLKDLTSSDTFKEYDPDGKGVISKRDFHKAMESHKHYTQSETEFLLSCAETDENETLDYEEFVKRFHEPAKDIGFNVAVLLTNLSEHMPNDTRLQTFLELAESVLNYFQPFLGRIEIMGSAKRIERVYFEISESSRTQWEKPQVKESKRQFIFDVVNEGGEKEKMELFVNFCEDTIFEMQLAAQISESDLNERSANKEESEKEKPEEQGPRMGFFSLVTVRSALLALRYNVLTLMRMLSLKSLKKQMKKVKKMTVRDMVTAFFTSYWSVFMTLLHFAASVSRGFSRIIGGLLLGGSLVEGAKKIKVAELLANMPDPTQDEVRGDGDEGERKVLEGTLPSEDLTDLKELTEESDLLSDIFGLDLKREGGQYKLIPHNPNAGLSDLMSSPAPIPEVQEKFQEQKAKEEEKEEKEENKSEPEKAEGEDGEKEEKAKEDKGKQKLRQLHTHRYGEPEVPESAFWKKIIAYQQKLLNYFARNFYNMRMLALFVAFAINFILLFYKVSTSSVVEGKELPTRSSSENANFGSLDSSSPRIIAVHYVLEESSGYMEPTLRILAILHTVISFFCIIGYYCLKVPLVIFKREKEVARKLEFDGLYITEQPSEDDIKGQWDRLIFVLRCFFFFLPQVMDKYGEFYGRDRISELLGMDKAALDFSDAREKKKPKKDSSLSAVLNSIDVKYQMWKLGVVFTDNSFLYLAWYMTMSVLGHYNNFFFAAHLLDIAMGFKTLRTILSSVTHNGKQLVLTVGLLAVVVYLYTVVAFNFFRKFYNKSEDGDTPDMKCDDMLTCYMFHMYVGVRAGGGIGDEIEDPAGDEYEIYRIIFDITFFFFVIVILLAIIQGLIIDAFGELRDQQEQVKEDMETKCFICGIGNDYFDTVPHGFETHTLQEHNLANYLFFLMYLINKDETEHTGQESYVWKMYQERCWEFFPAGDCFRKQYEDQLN

Regarding `Cc1ccc(C(=O)Nc2ccc(S(=O)(=O)O)c3cc(S(=O)(=O)O)cc(S(=O)(=O)O)c23)cc1NC(=O)c1cccc(NC(=O)Nc2cccc(C(=O)Nc3cc(C(=O)Nc4ccc(S(=O)(=O)O)c5cc(S(=O)(=O)O)cc(S(=O)(=O)O)c45)ccc3C)c2)c1` [suramin], the “Decrease of F-FKBP binding” value in assay [1] and in assay [2] was “did not alter” each time. For the same compound, in assay [3] (30 nM Ca2+, 5 mM GSSG), the “Hit in primary FLT-FRET HTS of LOPAC (FRET altered by > 4 SD vs DMSO)” value is reported as “identified”. Further, in assay [3] (5 mM GSSG vs 5 mM GSH, isoform not given (figures show skeletal and cardiac SR)), the “Influence of GSSG vs GSH on the FRET dose-response effect” value is “not altered by GSH or GSSG”. For the same compound, the “Compound concentration at which FRET is abolished” value in assay [3] (FRET dose-response, isoform not given (figures show skeletal and cardiac SR)) was not above 20 µM. Further, the IC50 came out at 5.9 ± 0.7 µM in assay [3] (30 nM Ca2+, 5 mM GSH); 7.1 ± 0.5 µM in assay [3] (30 nM Ca2+, 5 mM GSSG); 2.5 ± 0.3 µM in assay [4] (5 mM GSH); 2.4 ± 0.6 µM in assay [4] (5 mM GSSG).
On to `CO[C@H]1C[C@@H]2CC[C@@H](C)[C@@](O)(O2)C(=O)C(=O)N2CCCC[C@H]2C(=O)O[C@H]([C@H](C)C[C@@H]2CC[C@@H](OC(=O)C(C)(CO)CO)[C@H](OC)C2)CC(=O)[C@H](C)/C=C(\C)[C@@H](O)[C@@H](OC)C(=O)[C@H](C)C[C@H](C)/C=C/C=C/C=C/1C` [temsirolimus], for which the “Decrease of F-FKBP binding” value came out at 20% in assay [1] and 70% in assay [2]. Also, in assay [3] (30 nM Ca2+, 5 mM GSSG), the “Hit in primary FLT-FRET HTS of LOPAC (FRET altered by > 4 SD vs DMSO)” value was “identified”. The FRET reduction was ~ 10% in assay [3] (RyR1, dose-response, 30 nM Ca2+) and 68–70% in assay [4] (RyR2, dose-response).
Turning to “FKBP12.6 single-cysteine mutant (C22A/T85C/C76I) labeled with AF488 (donor-FKBP) (natural protein)”, the results for the percent decrease of binding with 10 μM temsirolimus or tacrolimus in assay [5] and in assay [6] were 70% and 20%, respectively. Also, the values for the FRET reduction by temsirolimus in assay [7] and in assay [8] were 68 to 70% and 10%, respectively.

What is called IC50 is the point on the concentration scale where inhibition reaches its midpoint. The low end stands for greater potency, the high end for weaker potency.
